Reference: PubChem BioAssay AID328 (DTP/NCI, 2004)
Where “and” joins values, the source holds several entries; their conditions need not be identical. Equal entries are not always repeated. Toxic doses and inconclusive results are not listed. The calls were made as follows: active = survival T/C of 150% or more; inactive = T/C below 125% in these data.

Test system: BDF1 mice, P388 leukemia ip, median survival T/C
Assay: NCI In Vivo Anticancer Drug Screen. Data for tumor model P388 Leukemia (intraperitoneal) in B6D2F1 (BDF1) mice
Details: endpoint: median survival time, higher = longer survival
In short: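 Reported as T/C, where T is the survival measurement in dosed animals and C the same measurement in vehicle controls.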

[1] = dose: 25.0 mg/kg/injection, schedule: Q01DX009 (ip), vehicle: saline with Tween-80
[2] = dose: 50.0 mg/kg/injection, schedule: Q01DX009 (ip), vehicle: saline with Tween-80
[3] = dose: 100.0 mg/kg/injection, schedule: Q01DX009 (ip), vehicle: saline with Tween-80
[4] = dose: 100.0 mg/kg/injection, schedule: Q04DX003 (ip), vehicle: saline with Tween-80
[5] = dose: 200.0 mg/kg/injection, schedule: Q01DX009 (ip), vehicle: saline with Tween-80
[6] = dose: 200.0 mg/kg/injection, schedule: Q04DX003 (ip), vehicle: saline with Tween-80
[7] = dose: 100.0 mg/kg/injection, schedule: Q01DX009 (ip), vehicle: Klucel (hydroxypropylcellulose) (HPC)
[8] = dose: 100.0 mg/kg/injection, schedule: Q04DX003 (ip), vehicle: Klucel (hydroxypropylcellulose) (HPC)
[9] = dose: 200.0 mg/kg/injection, schedule: Q01DX009 (ip), vehicle: Klucel (hydroxypropylcellulose) (HPC)
[10] = dose: 200.0 mg/kg/injection, schedule: Q04DX003 (ip), vehicle: Klucel (hydroxypropylcellulose) (HPC)
[11] = dose: 400.0 mg/kg/injection, schedule: Q04DX003 (ip), vehicle: Klucel (hydroxypropylcellulose) (HPC)
[12] = dose: 6.25 mg/kg/injection, schedule: Q01DX009 (ip), vehicle: saline
[13] = dose: 12.5 mg/kg/injection, schedule: Q01DX009 (ip), vehicle: saline
[14] = dose: 25.0 mg/kg/injection, schedule: Q01DX009 (ip), vehicle: saline
[15] = dose: 50.0 mg/kg/injection, schedule: Q01DX009 (ip), vehicle: saline
[16] = dose: 100.0 mg/kg/injection, schedule: Q01DX009 (ip), vehicle: saline
[17] = dose: 100.0 mg/kg/injection, schedule: Q01DX009 (ip), vehicle: water
[18] = dose: 50.0 mg/kg/injection, schedule: Q04DX003 (ip), vehicle: saline with Tween-80

Measured: T/C

C=CCOc1ccccc1OC
inactive: [1] 100 % of control | [2] 113 % of control | [3] 107 % of control and 113 % of control | [4] 100 % of control | [5] 100 % of control | [6] 113 % of control

COc1ccc(NC2=CC(=O)C(=O)C=C2Nc2ccc(OC)cc2)cc1
inactive: dose: 15.0 mg/kg/injection, schedule: Q01DX009 (ip), vehicle: saline with Tween-80 93 % of control | dose: 30.0 mg/kg/injection, schedule: Q01DX009 (ip), vehicle: saline with Tween-80 93 % of control | dose: 60.0 mg/kg/injection, schedule: Q01DX009 (ip), vehicle: saline with Tween-80 91 % of control

CCOC1C=CC(OC(C)=O)C(COC(C)=O)O1 (configuration not stated)
inactive: [7] 90 % of control | [8] 100 % of control | [9] 86 % of control | [10] 104 % of control | dose: 400.0 mg/kg/injection, schedule: Q01DX009 (ip), vehicle: Klucel (hydroxypropylcellulose) (HPC) 100 % of control | [11] 100 % of control

CN=C(N)NCCCCCCCCNC(N)=NC
inactive: [12] 110 % of control | [13] 122 % of control

C[n+]1c2ccccc2cc2ccccc21
inactive: [1] 118 % of control

CN1N=Nc2cccc3cccc1c23
inactive: [14] 105 % of control | [15] 100 % of control | [16] 105 % of control

Nc1c(SSc2ccc3ccccc3c2N)ccc2ccccc12
inactive: dose: 6.25 mg/kg/injection, schedule: Q01DX001 (ip), vehicle: Klucel (hydroxypropylcellulose) (HPC) 109 % of control | dose: 12.5 mg/kg/injection, schedule: Q01DX001 (ip), vehicle: Klucel (hydroxypropylcellulose) (HPC) 109 % of control | dose: 25.0 mg/kg/injection, schedule: Q01DX001 (ip), vehicle: Klucel (hydroxypropylcellulose) (HPC) 116 % of control

C/C=C(\C)C(=O)OCC1CC[N+](C)([O-])C1 (configuration not stated)
inactive: dose: 50.0 mg/kg/injection, schedule: Q01DX009 (ip), vehicle: water 103 % of control | [17] 100 % of control | dose: 200.0 mg/kg/injection, schedule: Q01DX009 (ip), vehicle: water 103 % of control | dose: 400.0 mg/kg/injection, schedule: Q01DX009 (ip), vehicle: water 119 % of control

Cc1ccc(S(=O)(=O)OCCN(CCOS(=O)(=O)c2ccc(C)cc2)c2cc(OCc3ccccc3)cc(OCc3ccccc3)c2)cc1
inactive: dose: 1.56 mg/kg/injection, schedule: Q01DX009 (ip), vehicle: water 90 % of control and 99 % of control | dose: 3.12 mg/kg/injection, schedule: Q01DX009 (ip), vehicle: water 93 % of control and 100 % of control | dose: 6.25 mg/kg/injection, schedule: Q01DX009 (ip), vehicle: water 98 % of control and 110 % of control | dose: 12.5 mg/kg/injection, schedule: Q01DX009 (ip), vehicle: water 91 % of control and 100 % of control | dose: 25.0 mg/kg/injection, schedule: Q01DX009 (ip), vehicle: water 93 % of control and 100 % of control | dose: 50.0 mg/kg/injection, schedule: Q04DX003 (ip), vehicle: water 91 % of control | [17] 88 % of control | dose: 100.0 mg/kg/injection, schedule: Q04DX003 (ip), vehicle: water 89 % of control | dose: 200.0 mg/kg/injection, schedule: Q04DX003 (ip), vehicle: water 97 % of control | dose: 400.0 mg/kg/injection, schedule: Q04DX003 (ip), vehicle: water 97 % of control

COc1ccc(NC2=NCCS2)cc1
inactive: [2] 109 % of control | [3] 104 % of control

COC(=O)C1(Br)CCC1(Br)C(=O)OC (configuration not stated)
inactive: dose: 50.0 mg/kg/injection, schedule: Q01DX009 (ip), vehicle: Klucel (hydroxypropylcellulose) (HPC) 100 % of control | dose: 100.0 mg/kg/injection, schedule: Q01DX001 (ip), vehicle: other 100 % of control | [7] 109 % of control | [8] 109 % of control | dose: 200.0 mg/kg/injection, schedule: Q01DX001 (ip), vehicle: other 95 % of control | [9] 113 % of control | [10] 109 % of control | dose: 400.0 mg/kg/injection, schedule: Q01DX001 (ip), vehicle: other 112 % of control | [11] 113 % of control

O=C(NC1=NN(c2ccccc2)C(=O)C1)C(Cl)c1ccccc1 (configuration not stated)
inactive: [2] 104 % of control | [3] 95 % of control | [5] 95 % of control

CCOC(=O)CCC(NC(=O)c1ccc(N(C=O)CCOC=O)cc1)C(=O)OCC (configuration not stated)
inactive: [18] 105 % of control | [4] 105 % of control | [6] 111 % of control

CC(C)(C(Cl)Cl)S(=O)(=O)O (tested in a mixture with another compound)
inactive: dose: 75.0 mg/kg/injection, schedule: Q01DX009 (ip), vehicle: saline with Tween-80 100 % of control | dose: 75.0 mg/kg/injection, schedule: Q04DX003 (ip), vehicle: saline with Tween-80 110 % of control | dose: 150.0 mg/kg/injection, schedule: Q01DX009 (ip), vehicle: saline with Tween-80 100 % of control | dose: 150.0 mg/kg/injection, schedule: Q04DX003 (ip), vehicle: saline with Tween-80 100 % of control | dose: 300.0 mg/kg/injection, schedule: Q01DX009 (ip), vehicle: saline with Tween-80 109 % of control | dose: 300.0 mg/kg/injection, schedule: Q04DX003 (ip), vehicle: saline with Tween-80 110 % of control

CCCCC(I)C(C)(C)[n+]1ccccc1 (configuration not stated)
inactive: dose: 3.12 mg/kg/injection, schedule: Q04DX003 (ip), vehicle: saline with Tween-80 100 % of control | dose: 6.25 mg/kg/injection, schedule: Q04DX003 (ip), vehicle: saline with Tween-80 95 % of control | dose: 12.5 mg/kg/injection, schedule: Q01DX009 (ip), vehicle: saline with Tween-80 100 % of control | dose: 12.5 mg/kg/injection, schedule: Q04DX003 (ip), vehicle: saline with Tween-80 87 % of control | [1] 113 % of control | dose: 25.0 mg/kg/injection, schedule: Q04DX003 (ip), vehicle: saline with Tween-80 103 % of control | [18] 96 % of control

BrCCCC[P+](c1ccccc1)(c1ccccc1)c1ccccc1
inactive: dose: 6.25 mg/kg/injection, schedule: Q01DX010 (ip), vehicle: saline 113 % of control | dose: 12.5 mg/kg/injection, schedule: Q01DX010 (ip), vehicle: saline 118 % of control

CCOC(=O)C(C(C)=O)C(c1ccc([N+](=O)[O-])cc1)C(C(C)=O)C(=O)OCC (configuration not stated)
inactive: dose: 0.78 mg/kg/injection, schedule: Q04DX003 (ip), vehicle: saline 117 % of control | dose: 1.56 mg/kg/injection, schedule: Q04DX003 (ip), vehicle: saline 114 % of control | dose: 3.12 mg/kg/injection, schedule: Q01DX009 (ip), vehicle: saline 108 % of control | dose: 3.12 mg/kg/injection, schedule: Q04DX003 (ip), vehicle: saline 104 % of control | [12] 106 % of control | dose: 6.25 mg/kg/injection, schedule: Q04DX003 (ip), vehicle: saline 99 % of control | [13] 100 % of control | dose: 12.5 mg/kg/injection, schedule: Q04DX003 (ip), vehicle: saline 111 % of control | [14] 92 % of control | dose: 25.0 mg/kg/injection, schedule: Q04DX003 (ip), vehicle: saline 99 % of control | [15] 89 % of control | [16] 93 % of control
